Consider 22 compounds from patent US10618900B2, “5-aromatic alkynyl substituted benzamide compound and preparation method, pharmaceutical composition, and use thereof” (SHANGHAI INSTITUTE OF MATERIA MEDICA, CHINESE ACADEMY OF …, priority 2015, dated 2020).

As a reminder, the IC50 is the midpoint of a concentration-inhibition curve.

Test [1] has as its target mGluR5 (Homo sapiens (Human), UniProt P41594). Nature of the test: In vitro activity test for mGluR5, HDB Fluo-8 calcium fluorescence detection (FLIPR). In kind it is cell-based. The conditions noted are these: HEK293/mGluR5 cell line. From the text:
Experimental instrument: FLIPR Tetra real-time fluorescence imaging analysis system
Experimental method: HDB Fluo-8 calcium fluorescence detection method
Experimental principle: HDB Fluo-8 calcium ion fluorescence detection method is a fast, simple and reliable fluorescence detection method of intracellular calcium concentration changes. The Fluo 8-AM fluorescent dye is an […] derivative of Fluo 8 which can easily penetrate the cell membrane into the cell by culture. The fluorescent dye into the cell will be hydrolyzed by intracellular esterase, the resulting Fluo 8 cannot easily pass through the lipid bimolecular membrane as a polar molecule, and will retain in the cell, and combine with calcium (Ca^2+) to produce fluoresces.
Cells expressing GPCR receptor protein (mGluR5) were first calibrated with a calcium ion sensitive fluorescent probe and then stimulated with the compound. After stimulation, the activation of the receptor lead to the calcium ion mobilization, and the fluorescent probe captures the calcium ion to induce the fluorescence signal. The signal can be read by a fluorescent plate reader. The fluorescent plate reader contains a sampling head for compound addition, thus enabling the change of the fluorescence value of the compound be read in real time. […]

Test [2] concerns the target mGluR1 (Homo sapiens (Human), UniProt Q13255). Nature of the test: mGluR5/1 selectivity test, HEK293/mGluR1 cell line, Fluo-8 calcium. In kind it is cell-based. The following applies: for IC50: HEK293/mGluR1 cell line; for mGluR5/mGluR1: selectivity ratio of IC50 values. The source says: Experimental material: HEK293/mGluR5 cell line, HEK293/mGluR1 cell line, Fluo-8 calcium ion fluorescent dye, positive control JNJ16259685

Test [3] concerns mice. Description: Head twitches test (5-HTP induced). In kind it is in vivo. The following applies: positive control, FIG. 2. The source says:
Experimental principle: Model Head Thrust Test (HTT) is first raised by Corne et al. in 1963, head twitches syndrome caused by 5-HT receptor excitement may be mediated through the 5-HT2 receptor. The head twitches behavior induced by 5-HTP in mice is more sensitive to antidepressants with different action mechanisms, such as citalopram, fluvoxamine and other 5-HT retake inhibitors, desipramine, maprotiline, nomifensine and other NA retake inhibitors and imipramine acting on both 5-HT and NA system.
Experimental method: 20-24 g male mice were selected. 3 h before the test, 100 mg/kg pargyline was intraperitoneal injected and then intraperitoneal injected with test drugs or saline. 5-HTP (5 mg/kg, ip) was injected 30 min later. After 10 min, the observation was started and the number of mice head twitches in 6 min was recorded. The numbers of the head twitches of experimental group and the saline control group were compared.

The test system of test [4] is mice. Description: Mouse tail suspension experiment. The format is in vivo. The following applies: positive control, FIG. 1. From the text:
Experimental principle: Tail Suspension Test (TST) is a classic method which can quickly evaluate the efficacy of antidepressant drugs, excitement drugs, and sedative drugs. The principle is to use the status that the mouse give up struggle and enter the unique depression status after the tail was suspended and the attempt to escape was failed.
Experimental method: 20-24 g male mice were selected and the site at 2 cm part from the end of the tail was attached to a horizontal stick, so that the animal entered inverted state, and it's head was about 5 cm from the table, and boards were hung on both sides to separate the animal's sight. The immobility time of the administration group and the control group within 6 min were compared.

In test [5] the test system is ICR mice. Nature of the test: Mouse forced swimming experiment. The format is in vivo. The following applies: positive control, 10 mg/kg intraperitoneal, later 4 min of 6 min. Here is the method:
Experimental principle: The principle of Mouse Forced Swimming Test (FST) is to allow the mouse to swim in a limited space from which it can not escape, thus inducing animal to non-movement state which reflects the animal's desperate behavior.
Experimental animals: ICR mice, 20-28 g, both male and female
Sample treatment: The test compounds were ground with 1% CMC (sodium carboxymethyl cellulose) aqueous solution to prepare a homogeneous solution. In vivo dose was 5 mg/kg, 10 mg/kg and 20 mg/kg, the compound was oral administered at 0.1 ml/10 g volume/body weight. Positive control drugs (amitriptyline and fluoxetine) were dissolved with 0.9% saline, in vivo dose was 10 mg/kg, administered by intraperitoneal injection at 0.1 ml/10 g volume/body weight. (Note: the mice were fasted for 8 h and drinked water ad libitum before the compound was given.)
Experimental Methods: mice were grouped randomly. […] On the second day of the test, the mice were orally administered the compound. After 1 hour (0.5 hours after intraperitoneal injection), the mice were then put in water to record the immobility time in the later 4 min of 6 min.

Molecules are shown by their SMILES. Some results are limits rather than exact numbers.

Chain of mGluR1 (Q13255 19-1194): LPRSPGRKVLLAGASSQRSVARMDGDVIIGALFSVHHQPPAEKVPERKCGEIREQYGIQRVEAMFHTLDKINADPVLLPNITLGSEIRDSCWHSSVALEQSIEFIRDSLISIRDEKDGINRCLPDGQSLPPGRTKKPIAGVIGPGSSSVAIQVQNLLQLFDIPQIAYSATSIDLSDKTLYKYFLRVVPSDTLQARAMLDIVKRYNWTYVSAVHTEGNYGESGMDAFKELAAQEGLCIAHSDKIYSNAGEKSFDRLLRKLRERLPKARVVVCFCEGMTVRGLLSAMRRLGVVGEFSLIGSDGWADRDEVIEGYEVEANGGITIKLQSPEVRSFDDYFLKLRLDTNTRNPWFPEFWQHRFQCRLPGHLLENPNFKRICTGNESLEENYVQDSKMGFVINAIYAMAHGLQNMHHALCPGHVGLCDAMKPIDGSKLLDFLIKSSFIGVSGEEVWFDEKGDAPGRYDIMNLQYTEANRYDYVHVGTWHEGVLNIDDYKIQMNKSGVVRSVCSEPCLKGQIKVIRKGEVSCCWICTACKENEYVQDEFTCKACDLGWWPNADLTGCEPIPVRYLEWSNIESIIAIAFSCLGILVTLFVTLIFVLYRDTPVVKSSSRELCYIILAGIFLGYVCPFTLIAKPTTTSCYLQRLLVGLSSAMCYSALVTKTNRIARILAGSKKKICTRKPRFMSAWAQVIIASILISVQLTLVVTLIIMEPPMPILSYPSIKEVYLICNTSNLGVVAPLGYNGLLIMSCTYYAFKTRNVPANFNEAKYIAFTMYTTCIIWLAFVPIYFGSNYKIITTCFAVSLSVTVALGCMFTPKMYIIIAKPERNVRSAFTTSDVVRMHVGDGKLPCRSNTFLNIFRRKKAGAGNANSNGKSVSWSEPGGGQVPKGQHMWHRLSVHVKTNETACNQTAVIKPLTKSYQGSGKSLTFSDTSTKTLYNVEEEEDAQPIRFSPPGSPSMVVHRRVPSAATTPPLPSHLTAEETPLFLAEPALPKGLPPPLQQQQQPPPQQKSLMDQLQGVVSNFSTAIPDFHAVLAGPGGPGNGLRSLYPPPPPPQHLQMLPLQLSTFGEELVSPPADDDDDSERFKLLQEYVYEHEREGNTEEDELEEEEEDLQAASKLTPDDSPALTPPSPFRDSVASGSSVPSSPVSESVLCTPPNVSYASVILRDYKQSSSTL
Chain of mGluR5 (P41594 21-1212): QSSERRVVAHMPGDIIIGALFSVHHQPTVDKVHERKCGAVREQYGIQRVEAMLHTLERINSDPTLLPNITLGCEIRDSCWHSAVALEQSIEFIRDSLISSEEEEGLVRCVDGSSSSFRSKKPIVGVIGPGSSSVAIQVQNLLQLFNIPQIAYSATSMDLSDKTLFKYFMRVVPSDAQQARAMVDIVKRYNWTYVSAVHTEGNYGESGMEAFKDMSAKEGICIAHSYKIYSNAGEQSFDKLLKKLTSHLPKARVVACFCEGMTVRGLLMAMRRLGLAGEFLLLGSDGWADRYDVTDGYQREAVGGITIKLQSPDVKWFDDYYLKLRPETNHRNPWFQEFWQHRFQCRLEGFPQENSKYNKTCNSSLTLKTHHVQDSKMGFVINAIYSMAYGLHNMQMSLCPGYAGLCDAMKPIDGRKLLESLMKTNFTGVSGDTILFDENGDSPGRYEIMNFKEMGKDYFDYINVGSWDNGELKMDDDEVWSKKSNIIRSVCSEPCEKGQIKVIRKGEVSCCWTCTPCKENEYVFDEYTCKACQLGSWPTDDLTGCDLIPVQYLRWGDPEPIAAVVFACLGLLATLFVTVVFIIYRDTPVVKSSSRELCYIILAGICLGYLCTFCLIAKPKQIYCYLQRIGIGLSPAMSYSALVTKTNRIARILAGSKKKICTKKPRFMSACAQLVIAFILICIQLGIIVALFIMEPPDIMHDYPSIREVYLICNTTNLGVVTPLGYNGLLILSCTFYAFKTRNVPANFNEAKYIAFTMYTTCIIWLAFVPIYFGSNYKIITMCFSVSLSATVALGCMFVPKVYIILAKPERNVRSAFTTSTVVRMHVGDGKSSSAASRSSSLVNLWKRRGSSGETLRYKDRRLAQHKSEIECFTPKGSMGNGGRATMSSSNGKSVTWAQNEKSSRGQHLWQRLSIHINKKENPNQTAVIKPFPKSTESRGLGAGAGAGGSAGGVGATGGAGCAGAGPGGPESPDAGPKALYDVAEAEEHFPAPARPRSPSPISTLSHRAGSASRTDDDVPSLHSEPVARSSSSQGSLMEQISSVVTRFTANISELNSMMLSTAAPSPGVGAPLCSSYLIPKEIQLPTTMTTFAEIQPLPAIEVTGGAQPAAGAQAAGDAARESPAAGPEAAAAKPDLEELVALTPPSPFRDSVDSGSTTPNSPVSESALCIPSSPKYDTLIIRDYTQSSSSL

On to `O=C(Nc1ccc(F)cc1)c1cc(C#Cc2ccccn2)ccc1Cl` [ZD036, 2-chloro-N-(4-fluorophenyl)-5-(pyridin-2-ethynyl)benzamide], for which the IC50 in test [1] is 20.3 nM. Further, in test [2], the concentration for half-maximal inhibition (IC50) is over 100000 nM and the mGluR5/mGluR1 is on record as over 4929.
`CC1c2ccccc2CCN1C(=O)c1cc(C#Cc2ccccn2)ccc1F` (stereo not shown) [ZD048, (2-fluoro-5-(pyridin-2-ylethynyl)phenyl) (1-methyl-3,4-dihydro-isoquinolin-2(1H)-yl)methanone]: in test [1], the IC50 was found to be 71.3 nM.
`Cc1nc(C#Cc2cccc(C(=O)Nc3cccc(F)c3)c2)cs1` [ZD017, N-(3-fluorophenyl)-3-((2-methylthiazol-4-yl)ethynyl)benzamide]: the IC50 in test [1] worked out at 133 nM.
Same read-out and setting: the same measure for `Cc1nc(C#Cc2cccc(C(=O)Nc3cccc(C#N)c3)c2)cs1` [ZD019, N-(3-cyanophenyl)-3-((2-methylthiazol-4-yl)ethynyl)benzamide]: 134 nM.
With `Cc1nc(C#Cc2ccc(F)c(C(=O)N3CCc4ccccc4C3)c2)cs1` [ZD047, (3,4-dihydro-isoquinolin-2(1H)-yl)(2-fluoro-5-((2-methyl-thiazol-4-yl)ethynyl)phenyl)methanone], in test [1], the IC50 came out at 6.65 nM. In test [2], the IC50 was over 100000 nM and the mGluR5/mGluR1 is given as over 15044.
`O=C(Nc1cccnc1)c1cc(C#Cc2ccccn2)ccc1F` [ZD042, 2-fluoro-5-(pyridin-2-ethynyl)-N-(pyridin-3-yl)benzamide]: the IC50 in test [1] was 19.4 nM; in test [2] it was over 100000 nM. In test [2], the mGluR5/mGluR1 is given as over 5155.
`COC1CCC(C(=O)c2ccc3nc4c(cc3c2)CCCO4)CC1` (stereo not shown) [JNJ16259685, reference compound]: the half-maximal inhibitory concentration (IC50) in test [2] (positive control) was determined as 91.2 nM.
Consider `CNCCC(Oc1ccc(C(F)(F)F)cc1)c1ccccc1` (stereo not shown) [Fluoxetine, fluoxetine, reference compound], for which, in test [3], the “number of head twitches” value was “significantly improve”. Besides, the “immobility time in the mouse tail suspension test” value in test [4] is listed as “significantly improve”. Moreover, the “immobility time (%) Mean ± SEM” value in test [5] is recorded as 84.79 ± 12.73%.
Regarding `N#Cc1ccc(NC(=O)c2cc(C#Cc3ccccn3)ccc2F)cc1` [ZD044, N-(4-cyanophenyl)-2-fluoro-5-(pyridin-2-ethynyl)benzamide], the IC50 in test [1] amounted to 86.5 nM.
Same read-out and setting: as for `Cc1ccc(C#Cc2ccccn2)cc1C(=O)Nc1ccc(F)cc1` [ZD040, N-(4-fluorophenyl)-2-methyl-5-(pyridin-2-ethynyl)benzamide], the figure is 104 nM.
Turning to `Cc1nc(C#Cc2ccc(F)c(C(=O)Nc3ccc(F)cc3)c2)cs1` [ZD004, 2-fluoro-N-(4-fluorophenyl)-5-((2-methyl-thiZaol-4-yl)ethynyl)benzamide], in test [1], the half-maximal inhibitory concentration (IC50) came to 11 nM. In addition, in test [2], the half-maximal inhibitory concentration (IC50) was over 100000 nM and the mGluR5/mGluR1 is over 9091.
For the compound `CN(C)CCC=C1c2ccccc2CCc2ccccc21` [amitriptyline, reference compound], the “immobility time (%) Mean ± SEM” value in test [5] is “significantly improve”; in test [5] (listed as CCAmitriptyline), 15.34 ± 5.96 %.
Regarding `O=C(c1cc(C#Cc2ccccn2)ccc1F)N1CCc2ccccc2C1` [ZD046, (3,4-dihydro-isoquinolin-2(1H)-yl)(2-fluoro-5-(pyridin-2-ylethynyl)phenyl) methanone], the IC50 in test [1] was found to be 15.2 nM. Also, in test [2], the IC50 was over 100000 nM and the mGluR5/mGluR1 was over 6601.
The like results for `Cc1nc(C#Cc2ccc(Cl)c(C(=O)Nc3ccc(F)cc3)c2)cs1` [ZD037, 2-chloro-N-(4-fluorophenyl)-5-((2-methyl-thiazol-4-yl)ethynyl)benzamide] were, in that order, 7.31 nM, over 100000 nM and over 13676.
The like results for `O=C(Nc1ccc(F)cc1)c1cc(C#Cc2ccccn2)ccc1F` [ZD001, 2-fluoro-5-(pyridin-2-ethynyl)-N-(4-fluorophenyl)benzamide] were, in that order, 13.9 nM, over 100000 nM and over 7194.
Consider `Cc1nc(C#Cc2ccc(C)c(C(=O)Nc3ccc(F)cc3)c2)cs1` [ZD041, N-(4-fluorophenyl)-2-methyl-5-((2-methyl-thiazol-4-yl)ethynyl)benzamide], for which the IC50 in test [1] stood at 108 nM.
Same read-out and setting: as for `Cc1nc(C#Cc2ccc(F)c(C(=O)Nc3ccc(C#N)cc3)c2)cs1` [ZD045, N-(4-cyanophenyl)2-fluoro-5-((2-methyl-thiazol-4-yl)ethynyl)benzamide], the figure is 53.5 nM; as for `Cc1nc(C#Cc2cccc(C(=O)Nc3ccc(C#N)cc3)c2)cs1` [ZD010, N-(4-cyanophenyl)-3-((2-methylthiazol-4-yl)ethynyl)benzamide], 86.6 nM.
Turning to `O=C(Nc1ccc(F)cc1)c1cc(C#Cc2ccncc2)ccc1F` [ZD039, 2-fluoro-N-(4-fluorophenyl)-5-(pyridin-4-ethynyl)benzamide], the half-maximal inhibitory concentration (IC50) in test [1] turned out to be 382 nM.
The same measure, in the same setting: as for `Cc1nc(C#Cc2cccc(C(=O)N3CCc4ccccc4C3C)c2)cs1` (stereo not shown) [ZD011], the figure is 32.6 nM.
With `Cc1nc(C#Cc2cccc(C(=O)Nc3ccccc3)c2)cs1` [ZD014], the concentration for half-maximal inhibition (IC50) is 14.8 nM in test [1] and over 100000 nM in test [2]. The mGluR5/mGluR1 in test [2] is over 6757.
Consider `Cc1nc(C#Cc2ccc(F)c(C(=O)N3CCc4ccccc4C3C)c2)cs1` (stereo not shown) [ZD049, (2-fluoro-5-((2-methyl-thiazol-4-yl)ethynyl)phenyl)(1-methyl-3,4-dihydro-isoquinolin-2(1H)-yl)methanone], for which the IC50 in test [1] is 38 nM; in test [2], over 100000 nM. In test [2], the mGluR5/mGluR1 is listed as over 2632.
